Experimental findings from US20230310394A1 (THE SECOND XIANGYA HOSPITAL OF CENTRAL SOUTH UNIVERSITY, priority 2020, published 2023) are described below.

“And” between values parts separate entries of the source, which are not always exact repeats. Equal values may be shown once.

Common to all, as to assay type: cell-based, Human
The subject of assay [1] is HEL cells. Kind of assay: Apoptosis detection by flow cytometry after Annexin V-PI staining, HEL cells. Conditions: 24 hours. An excerpt: (§1) Three parallel replicate groups were set up, and the apoptosis of cells was detected by flow cytometry after Annexin V-PI staining.
(§2) The calculation formula of the apoptosis rate: apoptosis rate=ratio of early apoptotic cells (Annexin V+/PI−)+ratio of late apoptotic cells and necrotic cells (Annexin V+/PI+).

For assay [2], the system named is HEL^RE (HEL-resistant, ruxolitinib-resistant) cells. The experiment in a line: Anti-proliferative test, CellTiter-Lumi luminescence method, HEL-resistant model. Conditions: for IC50: HEL^RE cells. As to the method:
(§3) HEL (Human erythroleukemia cell line) and drug-resistant HEL cells were cultured in RPMI medium (Gibco) containing 20% heat-inactivated fetal bovine serum (Gibco) and 1% penicillin/streptomycin (Gibco).
(§4) HEL^PE model, namely HEL-persistent model, was constructed by treating HEL blast cells with a high concentration of ruxolitinib that exceeded the IC50 concentration of blast cells by more than 100 times, wherein the concentration of ruxolitinib used herein was 2.0 μM. The culture medium of the cells was changed every two days, the cells that cannot tolerate the high concentration of ruxolitinib died quickly, while the proliferated cells were DTP (drug-tolerant-persisters), and this cell subset was difficult to be killed by antitumor drugs. Stable drug-resistant cells were obtained after 4-6 weeks. Another drug resistance model is HEL^RE, namely the HEL-resistant model, which was constructed by treating blast cells with ruxolitinib from a starting concentration lower than the IC50 concentration of blast cells, slowly increasing to a high concentration to keep the cells from being killed. The starting concentration used herein was 0.1 μM, the drug was added as soon as the cells proliferated, the dosing gradient was 1.25-fold increments, and the final concentration was 2.0 μM. Stable drug-resistant cells were obtained after 4-6 weeks.
(§5) To test the anti-proliferative effect of the inhibitors, the above cell lines were cultured at a 3000 cells/200 μL per well, added with increasing concentrations of the inhibitors (concentration gradient: 0, 1, 2.5, 5, 10, 20 μM), then supplemented with DMSO to an equal volume. 4 parallel replicate groups and 3 blank wells (culture medium wells without cells) were set. After 72 hours, the cell proliferation was detected by a multi-plate reader using CellTiter-Lumi™ luminescence method (Beyotime), and the IC50 was calculated by Graph Pad prism.
(§6) The calculation formula of cell proliferation rate: cell proliferation rate=(Luminescence value of drug-treated group—average Luminescence value of blank wells)/(Luminescence value of DMSO control group—average Luminescence value of blank wells)×100%.
The method to evaluate whether the model is successfully constructed is to compare the IC50 of drug-resistant cells and naive cells, the obtained ratio was the drug-resistance index, and if the ratio was greater than 3, then the model was successfully constructed.

For assay [3], the system named is HEL^PE (HEL-persistent, ruxolitinib-resistant) cells. The experiment in a line: Anti-proliferative test, CellTiter-Lumi luminescence method, HEL-persistent model. To be noted: for IC50: Homo sapiens, HEL^PE cells, 72 hours. Here is the method: as §3, §4
To test the anti-proliferative effect of the inhibitors, the above cell lines were cultured at a 3000 cells/200 μL per well, added with increasing concentrations of the inhibitors (concentration gradient: 0, 1, 2.5, 5, 10, 20 μM), then supplemented with DMSO to an equal volume. […] After 72 hours, the cell proliferation was detected by a multi-plate reader using CellTiter-Lumi™ luminescence method (Beyotime), and the IC50 was calculated by Graph Pad prism.
The calculation formula of cell proliferation rate: cell proliferation rate=(Luminescence value of drug-treated group—average Luminescence value of blank wells)/(Luminescence value of DMSO control group—average Luminescence value of blank wells)×100%. […]

In assay [4] the test system is HEL^RE (HEL-resistant, ruxolitinib-resistant) cells. Kind of assay: Apoptosis detection by flow cytometry after Annexin V-PI staining, HEL-resistant model. To be noted: 24 hours.
Text: as §1, §2

Assay [5] concerns HEL cells. The experiment in a line: Anti-proliferative test, CellTiter-Lumi luminescence method, HEL cells. To be noted: 72 hours; for average proliferation rate: HEL cells, relative to DMSO control. Here is the method:
as §3, §5, §6

The subject of assay [6] is HEL^PE (HEL-persistent, ruxolitinib-resistant) cells. The experiment in a line: Apoptosis detection by flow cytometry after Annexin V-PI staining, HEL-persistent model. To be noted: 24 hours.
Text: as §1, §2

As to `N#CC[C@H](C1CCCC1)n1cc(-c2ncnc3[nH]ccc23)cn1` [ruxolitinib, Ruxolitinib], the average apoptosis rate in the assay on HEL cells [1] (2.5 μM) is 4.65% and 2.05%; in the assay on HEL cells [1] (5 μM) it was 5.07% and 2.14%; in the assay with HEL cells [1] (10 μM) it was 4.59% and 2.16%; in assay [4] (2.5 μM), 1.16% and 3.75%; in assay [4] (5 μM), 1.35% and 3.70%; in assay [4] (10 μM), 1.05% and 4.34%. Moreover, the average apoptosis rate amounted to 0.920% in assay [6] (2.5 μM), 1.11% in assay [6] (5 μM) and 0.740% in assay [6] (10 μM). Moreover, the IC50 in assay [2] (72 hours) stood at 24.9 µM; in assay [3], 25.5 µM; with HEL cells [5] (Homo sapiens, HEL naive cells, mean (95% confidence interval)), 0.05 µM. The drug-resistance index in assay [2] (ratio of IC50 of HEL^RE cells to IC50 of naive HEL cells) is on record as 498; in assay [3] (ratio of IC50 of HEL^PE cells to IC50 of naive HEL cells), 510. Further, the average proliferation rate is 41.4% and 50.5% with HEL cells [5] (1 μM); 40.6% and 48.4% in the assay with HEL cells [5] (2.5 μM); 42.8% and 50.2% in the assay with HEL cells [5] (5 μM); 40.8% and 48.4% with HEL cells [5] (10 μM); 22.9% and 28.5% in the assay with HEL cells [5] (20 μM).
As to `CNC(=O)c1cc(Oc2ccc(NC(=O)Nc3ccc(Cl)c(C(F)(F)F)c3)cc2)ccn1` [sorafenib], the average apoptosis rate in the assay on HEL cells [1] (2.5 μM) is on record as 5.82%; with HEL cells [1] (5 μM), 10.9%; in the assay with HEL cells [1] (10 μM), 16.1%; in assay [4] (2.5 μM), 1.22%; in assay [4] (5 μM), 5.58%; in assay [4] (10 μM), 18.6%. In addition, the average apoptosis rate in assay [6] (2.5 μM) was found to be 2.16%; in assay [6] (5 μM) it was 11.1%; in assay [6] (10 μM) it was 18.0%. For the same molecule, the IC50 in assay [2] (Homo sapiens, 72 h) was found to be 3.56 µM; in assay [3], 2.8 µM. Also, the average proliferation rate came to 80.3% with HEL cells [5] (1 μM), 72.1% with HEL cells [5] (2.5 μM), 40.0% in the assay on HEL cells [5] (5 μM) and 0.828% in the assay with HEL cells [5] (20 μM).
Regarding `CNC(=O)c1cc(Oc2ccc(NC(=O)Nc3ccc(Cl)c(C(F)(F)F)c3)c(F)c2)ccn1` [regorafenib], the average apoptosis rate with HEL cells [1] (2.5 μM) was found to be 4.31%; in the assay with HEL cells [1] (5 μM), 7.76%; with HEL cells [1] (10 μM) it was 10.6%; in assay [4] (2.5 μM), 9.50%; in assay [4] (5 μM) it was 12.9%; in assay [4] (10 μM), 14.7%. Further, the IC50 in assay [2] (Homo sapiens, 72 h) was 0.514 µM. In addition, the average proliferation rate is recorded as 84.7% in the assay with HEL cells [5] (1 μM); 57.7% with HEL cells [5] (2.5 μM); 32.1% in the assay with HEL cells [5] (5 μM); 17.7% in the assay with HEL cells [5] (10 μM); 1.15% in the assay on HEL cells [5] (20 μM).
